Marks after values point to notes of the source that are not given here.
What was measured:
Velvetleaf = experiment: Influence of water conditioners on the control of velvetleaf 21 DAT in the greenhouse; conditions: velvetleaf 21 DAT greenhouse
[1] = test system: glyphosate resistant canola Nexera 1012; experiment: Canola field trial: flowering, yield components, oil, protein and seed yield; assay type: in vivo
Procedure: (§1) A trial was conducted to evaluate the effect of early and or late application of glyphosate with Composition 2 on yield of glyphosate resistant canola. The RR canola was Nexera 1012. The trial was conducted on a silt loam soil with 40-47% sand, 30-50% silt and 10-23% clay, 1.4-2.9% organic matter, and pH of 6.4-8.2. The plot was planted to field pea and then hard red spring wheat the previous two years. Treatments were arranged in a randomized complete block design with four (4) replications each while the control (no-Composition 2) was replicated only twice. Plots were seeded with Nexera 1012 at seeding depth of about 1.2 to 2.5 cm, 10° C. soil temperature and plant population of approximately 110-115 seeds m2. Plants were fertilized with 87-31-9-22 N—P—K—S pounds per acre via spreading urea and potash and putting phosphorus (Alpine and 11-52-0) and sulfur through the drill. In-crop application of glyphosate at a rate of 0.45 kg ha-1 (180 g/ac) with Composition 2 at 1 L/ac was applied at 3-4 leaf stage (Early application), 6 leaf stage (Normal application), after 10 leaf stage (late) and at both 3-4 leaf and after 10 leaf stages (Early/late application). The control treatments were sprayed with glyphosate alone. Each treatment was replicated four (4) times except the control treatment which had only two (2) replications.
(§2) Plant leaf tissues were collected at one and two weeks after spraying within each treatment to determine the mineral compositions. At physiological maturity with 70% of the seeds on the main raceme turned black, plants were swathed and allowed to cure for three weeks before being combined. Prior to swathing, fifty randomly selected plants were used for seed yield and yield components analysis. Data on number of fruits/plant, percent seed oil and seed protein were collected and analysed. An area of […] of swath for each plot was combined and used for yield (bu/ac) determination. Seed yield (bu/ac) from combine was adjusted to 8% seed moisture content. Variables response to treatments were compared by analysis of variance (ANOVA) by using SPSS statistical software and mean values were subjected to ANOVA and significant means at F<0.05 were separated by the Duncan's multiple range test.

[2] = test system: glyphosate resistant canola Nexera 1012; experiment: Canola leaf tissue mineral composition after glyphosate with or without Composition 2; assay type: in vivo; conditions: for % K / % N / % P / % S / Fe ppm / Mn ppm / Zn ppm: Control: glyphosate 0.45 kg/ha alone
Procedure: as §1, §2

[3] = canola, Control: glyphosate 0.45 kg/ha alone
[4] = canola leaf tissue one week after application, Control: glyphosate alone
[5] = canola leaf tissue one week after spraying
[6] = canola leaf tissue two weeks after spraying

`O=C(O)COc1ccc(Cl)cc1Cl` [2,4-D Acid, 2,4-D] was tested, and the “2,4-D Acid (% control)” value (Velvetleaf; 2,4-D Acid (Rugged) 0.1 kg a.e/ha, herbicide alone) was 31 g %.

In the case of `CNC.O=C(O)COc1ccc(Cl)cc1Cl` [2,4-D DMA, 2,4-D Dimethylamine], the “2,4-D DMA (% control)” value (Velvetleaf; 2,4-D DMA 0.1 kg a.e./ha, herbicide alone) is reported as 29 g %.

For `N.N.O=S(=O)(O)O` [AMS, Diammonium sulfate], the “2,4-D Acid (% control)” value (Velvetleaf; 2,4-D Acid (Rugged) 0.1 kg a.e/ha +2% AMS) was 73 ab % and the “2,4-D DMA (% control)” value (Velvetleaf; 2,4-D DMA 0.1 kg a.e./ha +2% AMS) was 58 def %.

For `COc1c(Cl)ccc(Cl)c1C(=O)O.NCCOCCO` [Dicamba DGA, dicamba diglycolamine], the “Dicamba DGA (% control)” value (Velvetleaf; Dicamba DGA (Clarity) 0.034 kg a.e/ha, herbicide alone) was 36 g %.

For `O=C(O)CNCP(=O)(O)O` [glyphosate], the oil content ([1]; canola seed, Control: glyphosate 0.45 kg/ha alone) was 37.7%, the percent protein ([1]; canola seed, Control: glyphosate alone) was “lowest value” and the “Number of fruits per plant” value [1, 3] was 78.5. For the same molecule, the Seed yield [1, 3] was 40.9 bu/ac, the thousand seed weight [1, 3] was 3.1 g and the Percent green counts ([1]; control (no-Composition 2) compared to Early, Normal and Early/Late treatments) was “higher”. The Flowering ([1]; no-Composition 2 (glyphosate alone) plots compared to Composition 2 treated plots) was “delayed”, the Fe reduction [2, 4] was 22.7% and the “Mn concentration drop from the initial concentration” value [2, 4] was 13.4%. The “Zn concentration drop from the initial concentration” value [2, 4] was 14.5%, the “% K” value [2, 5] was 4.1^a % and the “% N” value [2, 5] was 3.7^a %. For the same molecule, the “% P” value [2, 5] was 0.3^a %, the “% S” value [2, 5] was 1.0^a % and the Fe ppm [2, 5] was 85.1^a ppm. The Mn ppm [2, 5] was 76.4^a ppm, the Zn ppm [2, 5] was 20.7^a ppm and the “% K” value [2, 6] was 4.3^a %. The “% N” value [2, 6] was 4.6^a %, the “% P” value [2, 6] was 0.5^a % and the “% S” value [2, 6] was 1.3^a %. The Fe ppm [2, 6] was 105^a ppm, the Mn ppm [2, 6] was 83.2^a ppm and the Zn ppm [2, 6] was 22.6^a ppm.

Reference: patent publication US20160227783A1, “AGROCHEMICAL FORMULATION AID FOR MICRONUTRIENT UPTAKE IN PLANTS, PLANT HEALTH BENEFITS AND HERBICIDE PERFORMANCE” (Adjuvants Plus USA, INC., priority 2015, published 2016)
